Results from patent publication US11548913B2, “Therapeutic compositions including peptides and uses thereof” (Stealth BioTherapeutics Inc., priority 2015, dated 2023).
“Also recorded” adds a separate entry of the source. Square brackets hold non-standard residues; d marks the D form. Peptide text beside a SMILES is read from it. Dmt = Cc1cc(O)cc(C)c1C[C@H](N)C(=O)O; dOrn = NCCC[C@@H](N)C(=O)O

Columns and labels:
[1] = tested on: Excised Sprague-Dawley rat hearts; test: Modified Langendorff rat heart model, ischemia/reperfusion with peptide in the reperfusion buffer (Example 1); conditions: 1 μM peptide in Krebs buffer during 2 hours reperfusion after 20 min global no-flow ischemia; compared to controls
Method: (§1) The Langendorff rodent heart model is widely employed in studies of myocardial function and responses to injury (e.g., ischemia). For whole-heart studies, male Sprague-Dawley rats (7-9 weeks old) were injected with pentobarbital (35 mg/kg, ip injection) and hearts were excised with midline thoracotomy. The aortas were secured around a cannula of a modified Langendorff apparatus and retrogradely perfused (perfusion pressure of 75 mm Hg) with a modified Krebs-Henseleit buffer containing (in mM): 118 NaCl, 24 NaHCO3, 4.75 KCl, 1.2 KH2PO4, 1.2 MgSO4, 2.0 CaCl2, and 10 glucose (gassed with 95/5% O2/CO2). Hearts were bathed in a buffer-filled perfusion chamber maintained at 37° C. for the duration of the experiments. Following the initiation of perfusion, hearts were instrumented for the simultaneous observation of mechanical and electrical function. A buffer-filled latex balloon (size 5, Harvard Apparatus, Holliston, Mass., USA), calibrated at the beginning of each day using a digital manometer, was inserted into the left ventricle (via the mitral valve) for the measurement of left ventricular developed pressure (LVDP), with balloon volume adjusted to establish a diastolic pressure of 5-8 mm Hg. Three electrodes were placed into the buffer filled perfusion chamber for the measurement of the volume-conducted electrocardiogram (ECG). Coronary flow rates were monitored constantly with a flow probe (Transconic Systems, Ithaca, N.Y., USA) connected in series with the perfusion line, and normalized to heart wet weight (in grams) at the end of each experiment. All physiological parameters were continuously monitored and stored on a personal computer using commercially available software (Chart, AD Instruments, Colorado Springs, Colo., USA). Heart rate was calculated using the LVDP trace, and maximal rates of contraction(+dP/dt) and relaxation (−dP/dt) were calculated using the derivative of the LVDP trace.
Following a 10 minute baseline period, ischemia/reperfusion was initiated. Hearts were exposed to global no-flow ischemia by stopping perfusion for 20 min. At the end of the index ischemia, static buffer from the perfusion lines was washed out (via an accessory port proximal to the aortic cannula), and reperfusion ensued for 2 hours either with Krebs buffer alone (control) or Krebs buffer containing an experimental peptide at a concentration of 1 μM. Peptides tested included D-Arg-D-Dmt-D-Lys-L-Phe-NH2 (SBT-46), D-Arg-L-DMT-L-Ala-L-Phe-NH2 (SBT-68), (Ac)-D-Arg-L-DMT-L-Lys-L-Phe-NH2 (SBT-85), D-Arg-L-Dmt-L-His-L-Phe-NH2(SBT-100), D-Arg-L-DMT-L-Orn-L-Phe-NH2 (SBT-102), D-Orn-L-DMT-L-Lys-L-Phe-NH2(SBT-131), D-(Amidine)Arg(propylamine)-L-DMT-L-Lys-L-Phe-NH2 (SBT-140), and D-Arg(butylamidine analog)-L-DMT-L-Lys-L-Phe-NH2(SBT-149). At the end of reperfusion, the left ventricle was dissected, sliced into 5 mm-thick slices, incubated in 1% triphenyltetrazolium chloride (TTC) for 10 min (37° C.) and digitally photographed for subsequent infarct size analysis. Infarct size was expressed as a percentage of the left ventricle (% area at risk (AAR))(calculated using ImageJ software, NIH, Bethesda, Md., USA).

excised rat hearts = test: Modified Langendorff rat heart model, peptide pre-treatment before ischemia/reperfusion (Example 2); conditions: hearts bathed 2 hours in 1 μM peptide before 20 min ischemia and 2 hours reperfusion; vs SBT-46, SBT-102 and controls; anticipated
Method: as §1, with “are” for “were”, “USA), which is” for “USA),”, “is” for “was”
Prior to the initiation of ischemia/reperfusion, the excised rat hearts are bathed in buffer containing an experimental peptide at a concentration of 1 μM or buffer alone (control) for two hours. The experimental peptide is selected from D-Arg-D-Dmt-D-Lys-L-Phe-NH2 (SBT-46), D-Arg-L-DMT-L-Ala-L-Phe-NH2 (SBT-68), (Ac)-D-Arg-L-DMT-L-Lys-L-Phe-NH2 (SBT-85), D-Arg-L-Dmt-L-His-L-Phe-NH2(SBT-100), D-Arg-L-DMT-L-Orn-L-Phe-NH2 (SBT-102), D-Orn-L-DMT-L-Lys-L-Phe-NH2(SBT-131), D-(Amidine)Arg(propylamine)-L-DMT-L-Lys-L-Phe-NH2(SBT-140), and D-Arg(butylamidine analog)-L-DMT-L-Lys-L-Phe-NH2 (SBT-149). Following a 10 minute baseline period, ischemia/reperfusion is initiated. Hearts are exposed to global no-flow ischemia by stopping perfusion for 20 min. At the end of the index ischemia, static buffer from the perfusion lines is washed out (via an accessory port proximal to the aortic cannula), and reperfusion ensues for 2 hours with Krebs buffer. At the end of reperfusion, the left ventricle is dissected, sliced into 5 mm-thick slices, incubated in 1% triphenyltetrazolium chloride (TTC) for 10 min (37° C.) and digitally photographed for subsequent infarct size analysis. Infarct size is expressed as a percentage of the left ventricle (% area at risk (AAR))(calculated using ImageJ software, NIH, Bethesda, Md., USA).

Cc1cc(O)cc(C)c1C[C@H](NC(=O)[C@H](N)CCCN)C(=O)N[C@@H](CCCCN)C(=O)N[C@@H](Cc1ccccc1)C(N)=O [SBT-131, D-Orn-L-DMT-L-Lys-L-Phe-NH2] (H-[dOrn][Dmt]KF-NH2)
attenuation of cardiac ischemia injury and ischemia-reperfusion injury [1]: able to attenuate cardiac ischemia injury and ischemia-reperfusion injury; also recorded: attenuation of cardiac ischemia-reperfusion injury
infarct size expressed as a percentage of area at risk (AAR) [1]: reduced infarct size
left ventricular developed pressure (LVDP) [1]: increased LVDP
maximal rates of contraction (+dP/dt) [1]: increased maximal rates of contraction
maximal rates of relaxation (−dP/dt) [1]: increased maximal rates of relaxation
LVDP (excised rat hearts): increased LVDP
infarct size (excised rat hearts): reduced infarct size
maximal rates of contraction (+dP/dt) (excised rat hearts): increased maximal rates of contraction
maximal rates of relaxation (−dP/dt) (excised rat hearts): increased maximal rates of relaxation
